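Test compounds were applied to cells in 96-well plates for 48 hours at 5 doses. GI50 = concentration required for 50% inhibition of growth. TGI marks complete inhibition of growth.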

Experiment in all cases: NCI anticancer screen, dose series, 48 h
Test [1] relates to UO-31 renal.
Test [2] relates to LOX IMVI melanoma.
Test [3] deals with NCI-H460 lung.
The test system of test [4] is SK-MEL-2 melanoma.
Test [5] has as its system HCT-15 colon.
Test [6] deals with SK-MEL-5 melanoma.
Test [7] concerns SK-MEL-28 melanoma.
Test [8] relates to MOLT-4 leukemia.
In test [9] the test system is SNB-19 CNS.
Test [10] concerns HS 578T breast.

In the case of `O=C(CSc1nnc(-c2ccc(N=Cc3ccc(Cl)cc3)cc2)o1)Nc1ccc([N+](=O)[O-])cc1`, the TGI is 37.2 µM in test [1]; 22.4 µM in [2]; more than 100 µM in [3]; 60.8 µM in test [4]; 32.6 µM in [5]; 67.9 µM in test [6]. The TGI in test [7] worked out at 33.7 µM; in test [8], 36.7 µM; in [9], 33.7 µM.

On to `COc1cccc(-c2nccc3c(OCc4ccccc4)c(OC)c(OC)cc23)c1`, for which the TGI in test [1], in test [2], in [4], in test [5], in test [6] and in [8] was more than 100 µM each time. This molecule registered a TGI in test [9] of more than 100 µM.

Take `O=[N+]([O-])c1ccc(N2N=C(c3ccc4ccccc4c3O)CC2c2ccc(Cl)cc2)c([N+](=O)[O-])c1` (configuration not stated): the TGI was more than 100 µM in [1]; more than 100 µM in test [3]; more than 100 µM in test [4]; more than 100 µM in test [5]; 63.3 µM in test [6]; more than 100 µM in test [7]. Besides, the figures for the TGI in [8] and in test [10] were 49 µM and more than 100 µM, respectively.

`COc1cc2c(cc1OC)[C@@](C)(C(O)C(O)C(C)(C)O)NCC2` (some centres not stated): the TGI in [1], in test [2], in test [4], in [5], in test [6] and in [7] was more than 100 µM each time. The TGI in test [8], in [9] and in test [10] was more than 100 µM each time.

For `CCCCn1c2ccccc2c2ccc3c(c21)C(=O)C=CC3=O`, the TGI in [1], in test [2], in [3], in [4], in [5] and in test [6] was more than 100 µM in each case. Further, the TGI in [7], in test [8] and in [9] was more than 100 µM throughout.

Turning to `Cn1ccnc1CCc1ccc(Cl)c(Cl)c1`, the TGI in test [1], in test [2], in [3], in test [4], in test [5] and in test [6] was more than 100 µM throughout. For the same molecule, the TGI in test [7] and in test [8] was more than 100 µM in each case.

As to `CC12CCC(C(=Nc3cc(C(F)(F)F)cc(C(F)(F)F)c3)C1=O)C2(C)C` (configuration not stated), the TGI is more than 100 µM in test [1]; 29.9 µM in [2]; more than 100 µM in test [3]; 51.2 µM in [4]; more than 100 µM in [5]; more than 100 µM in test [6]. In addition, the results for the TGI in test [7], in [8] and in [9] were more than 100 µM, 44.2 µM and more than 100 µM, respectively.

Regarding `N[C@H](CCC(=O)NCP(=O)(O)O)C(=O)O`, the TGI in test [1], in [3], in test [4], in test [5], in test [6] and in [7] was more than 100 µM throughout. In addition, the TGI in [8], in [9] and in test [10] was more than 100 µM throughout.

For `Cc1c(-c2nnc(-c3ccccc3)o2)c(=O)n(-c2ccccc2)n1C`, the TGI in test [1], in test [2], in test [3], in test [4], in test [5] and in test [7] was more than 100 µM each time. Further, the TGI in test [8] and in test [9] was more than 100 µM each time.

In the case of `CN(C)c1ccc(/C=C/C(=O)O)cc1`, the TGI in [1], in [2], in test [3], in test [4], in [5] and in test [6] was more than 100 µM each time. The TGI in test [8] and in [9] was more than 100 µM in each case.

As for `CC(=O)Oc1cc(OC(C)=O)c2c(C)cc(=O)oc2c1`, the TGI in test [1], in test [2], in [4], in test [5], in [6] and in [7] was more than 100 µM in each case. Besides, the TGI in [8], in test [9] and in [10] was more than 100 µM throughout.

With `CCCN(CCC)C1CCc2c(ccc3cc[nH]c23)C1` (configuration not stated), the TGI is more than 100 µM in test [1]; more than 100 µM in test [3]; more than 100 µM in test [4]; more than 100 µM in [5]; 41.4 µM in test [6]; 89.4 µM in test [7]. The TGI in test [8] is 96.7 µM; in test [9] it was more than 100 µM; in test [10] it was more than 100 µM.

Consider `O=C(O)CCc1ccc2c(c1)CC1(Cc3ccccc3C1)C2`, for which the TGI in test [1], in test [2], in [4], in test [5], in test [6] and in test [8] was more than 100 µM throughout. Also, the TGI in test [10] was more than 100 µM.

`CC1=CCC[C@H]2[C@](C)(CC3=CC(=O)C(Sc4ccccc4)=CC3=O)[C@@H](C)CC[C@]12C`: the TGI in test [1] was 29.1 µM; in test [2], 26.4 µM; in test [3], 42.9 µM; in test [4] it was 56.1 µM; in test [5], 35.7 µM; in [6], 30.9 µM. Besides, the TGI in [7] worked out at 35.7 µM; in test [8] it was 6.03 µM; in [9], 38.8 µM. In addition, the values for the GI50 in test [2], in test [4] and in [8] were 13.6 µM, 19.9 µM and 2.59 µM, respectively.

`CC(=O)OCCCCn1cc(Cn2ccc(=O)n(Cc3cn(CCCCOC(C)=O)nn3)c2=O)nn1`: the TGI in [1], in test [2], in [4], in [5], in [6] and in [7] was more than 100 µM in each case. Moreover, the TGI in [8], in test [9] and in test [10] was more than 100 µM in each case.

`C[n+]1c2ccccc2c(/C=N\NS(=O)(=O)c2ccc(Cl)cc2)c2ccccc21`: the TGI in test [1], in test [2], in [3], in [4], in test [5] and in [6] was more than 100 µM in each case. The TGI in test [7], in test [8] and in test [9] was more than 100 µM each time.

Turning to `Nc1ccc2ccc(-c3ccc[nH]3)nc2n1`, the TGI in test [1], in test [2], in test [3], in test [4], in test [5] and in test [6] was more than 100 µM throughout. Moreover, the TGI in test [7] and in test [9] was more than 100 µM throughout.

On to `O=[N+]([O-])c1ccc([N+]2=NC(c3ccccc3)=NN(c3ccccc3)C2)cc1`, for which the TGI in test [1] is more than 100 µM; in [2], more than 100 µM; in test [3], more than 100 µM; in test [4], 92.4 µM; in [5] it was more than 100 µM; in [6], more than 100 µM. For the same molecule, the TGI in test [7], in [8] and in [9] was more than 100 µM throughout.

Consider `O=C1/C(=C/c2ccccc2)NC(=S)N1CN1CCCCC1`, for which the TGI in test [1], in test [2], in test [4], in test [5], in test [6] and in [7] was more than 100 µM throughout. Further, the TGI in [8], in test [9] and in [10] was more than 100 µM in each case.

As to `COc1ccc2c(c1)CCN1CCCc3ccccc3C21` (configuration not stated), the TGI is more than 100 µM in test [1]; 57.9 µM in test [2]; more than 100 µM in test [4]; more than 100 µM in [5]; more than 100 µM in [6]; more than 100 µM in [7]. Also, the TGI in [8], in [9] and in test [10] was more than 100 µM in each case.

For the molecule `CCOC(=O)CCC(NC(=O)Cc1ccc(Oc2nc3ccccc3nc2-c2ccccc2)cc1)C(=O)OCC` (configuration not stated), the TGI in test [1], in test [3], in [4], in test [5], in [6] and in [7] was more than 100 µM throughout. In addition, the TGI in test [8], in test [9] and in test [10] was more than 100 µM each time.

Consider `Cc1c(O)c(OC2OC(CO)C(O)C(O)C2O)cc2c1C=C[C@@H]1[C@@]2(C)C(=O)C[C@]2(C)[C@@H]([C@@](C)(O)C(=O)CCC(C)(C)O)[C@H](O)C[C@@]12C` (some centres not stated), for which the TGI in test [1] was 44.8 µM; in test [2], 59.2 µM; in test [3] it was 48 µM; in [4] it was 68.7 µM; in test [5], 66.3 µM; in test [6] it was 43.6 µM. Further, the TGI in test [7] turned out to be 43.1 µM; in test [8], 63.7 µM; in test [9] it was 54 µM.

Take `Cc1ccc(S(=O)(=O)n2ccc(-c3ccc4ccn(S(=O)(=O)c5ccc(C)cc5)c4c3)c2)cc1`: the TGI in [1], in test [2], in [4], in test [5], in [6] and in test [8] was more than 100 µM in each case. Moreover, the TGI in [9] and in test [10] was more than 100 µM in each case.

Take `CCCCCCCCCCCCCCCCCC(=O)Nc1ccn(C2CCC(COP(=O)(O)O)O2)c(=O)n1` (configuration not stated): the TGI in test [1], in test [2], in test [4], in test [5], in [6] and in test [7] was more than 100 µM throughout. In addition, the TGI in test [8], in test [9] and in test [10] was more than 100 µM each time.

Consider `COC12C=CC(C=C1C#N)CC2` (configuration not stated) (tested in a mixture with another compound), for which the TGI in [1], in test [3], in test [4], in test [5], in [6] and in test [7] was more than 100 µM throughout. Also, the TGI in [8], in [9] and in test [10] was more than 100 µM each time.

As to `CCN(CC)CCOc1ccc(C(O)(Cc2ccc(OC)cc2)c2ccccc2)cc1` (configuration not stated), the TGI in [1] stood at 62 µM; in [2], 29 µM; in test [3], 51.9 µM; in test [4], 35.9 µM; in test [5], 51 µM; in test [6] it was 26.1 µM. The results for the TGI in test [7], in test [8] and in [9] were 27 µM, 38.4 µM and 67.5 µM, respectively.

In the case of `COC1=C2C=[N+](C)C3C(=C2C=CC1OC)Cc1cc2c(cc13)OCO2` (configuration not stated), the TGI in test [1] worked out at 26.6 µM; in test [2], 39.6 µM; in test [4], 29.6 µM; in test [5], 35.3 µM; in test [6] it was 23.2 µM; in [7], 47.4 µM. The TGI came to 17.8 µM in [8], 17.2 µM in test [9] and 51.2 µM in test [10].

Consider `O=C1C2=C(SCCS2)C(=O)c2c(Sc3ccc(Cl)cc3)c(Sc3ccc(Cl)cc3)c(Sc3ccc(Cl)cc3)c(Sc3ccc(Cl)cc3)c21`, for which the TGI in test [1] was more than 100 µM; in test [3], more than 100 µM; in test [4], more than 100 µM; in test [5], more than 100 µM; in [6], more than 100 µM; in test [8], 30.9 µM. The TGI in [9] was 88.6 µM; in test [10], more than 100 µM.

For the molecule `Cc1c2ccccc2c(C)n2c1nc1ccccc12`, the TGI is 24.1 µM in test [1]; 20.1 µM in [3]; 65.7 µM in test [5]; 16 µM in test [6]; 22.5 µM in test [7]; more than 100 µM in test [8]. Further, the TGI in [9] came out at 68.3 µM; in [10], 54.5 µM.

For the origin of these results see PubChem BioAssay (NCI).
